# Where no end group is shown, it is not given here. DAG = diacylglycerol ester at the C-terminus
# Experiments:
# [1] = tested on: AR39 Chlamydia pneumoniae; assay: Chlamydia pneumoniae clearance from infected THP-1 monocytes (flow cytometry); assay type: cell-based; conditions: 25 ng/ml and 50 ng/ml
# Protocol: THP-1 monocytes (5×10^4 cells/well) were cultured in Hank's Buffered Saline 1 with 10% FBS in a 24-well microplate. Cells were infected with […] AR39 Chlamydia pneumoniae (CPn) bacteria cells to give an MOI=1 and the infected cells were maintained for 72 hours after infection with a daily media change. Cells were either treated with the PDAG vehicle (0.01% Tween-20 in DMSO) or PDAG (25 ng/ml and 50 ng/ml) 24 hours prior to infection or 24 hours after infection. After the 72 hour incubation period cells were harvested and permeabilized with Cytofix/Cytoperm (BD Pharmingen) and mouse α-CPn monoclonal IgG (clone 61C75) was added and the permeabilized cells incubated for 1 hour. After incubation cells were washed and FITC labeled α-mouse IgG was added and incubated for 1 hour. Cells were again harvested and washed. Quantitation of infected cells was measured by flow cytometry. The viability of cells was determined by trypan blue exclusion.
# IL-6 = IL-6 mRNA (real-time PCR) and IL-6 protein (ELISA) in fibroblasts stimulated with PDAG; assay type: cell-based; conditions: 100 pg/ml PDAG, 24 h
# Protocol: Fibroblasts were stimulated with synthetic PDAG for 24 h. RNA was extracted from the fibroblasts and IL-6 transcripts were measured by real-time PCR and IL-6 protein was measure in the media by ELISA. […] Likewise approximately 2-fold more IL-6 protein in the media of the PDAG treated fibroblasts (P=0.0001) was measured.
# NALP3 = NALP3 transcripts in primary human fibroblasts incubated with PDAG; assay type: cell-based; conditions: 100 pg/ml, overnight, P=0.007
# Protocol: (§1) mRNA was extracted from primary human fibroblasts incubated overnight with 100 pg/ml synthetic PDAG. NALP3 and NFκB transcripts were measured.
# NFκB = NFκB transcripts in primary human fibroblasts incubated with PDAG; assay type: cell-based; conditions: 100 pg/ml, overnight, P=0.4
# Protocol: as §1
# Hepatitis B virus = assay: HBV replication in HepDES19 cells (core DNA Southern blot); assay type: cell-based; conditions: HepDES 19 cells
# Protocol: A tetracycline inducible HBV-stable cell line, HepDES19 cells (Guo, 2007), were maintained in DMEM/F-12 medium with penicillin and streptomycin (Invitrogen), 10% FBS, 500 μg/ml G418 (Invitrogen) and 1 μg/ml tetracycline (Sigma-Aldrich, St. Louis, Mo.). To initiate the HBV replication in HepDES19 cells, tetracycline was withdrawn from the medium and the cell was cultured for 4-5 days before viral DNA analysis. To treat the cells with pDAG, the peptide was added in the tetracycline free medium and supplied on the cell culture daily. The concentration of solvent DMSO was adjusted to 0.01% in every treatment.
# HBV core DNA was extracted from pDAG-treated HepDES19 cells as described previously (Guo, 2009). Briefly, cells from one 35 mm dish were lysed with 0.5 ml of lysis buffer (10 mM Tris-HCl pH 8.0, 10 mM EDTA, 1% NP40 and 2% sucrose) at 37° C. for 10 minutes. Cell debris and nuclei were removed by centrifugation and the supernatant was mixed with […] of 35% polyethylene glycol (PEG-8000) containing 1.5 M NaCl. After 1 hour incubation in ice, viral nucleocapsids were pelleted by centrifugation at 10,000 rpm for 5 min at 4° C., followed by 1 hour digestion at 37° C. in 200 μl of digestion buffer [0.5 mg/ml pronase (Calbiochem), 0.5% SDS, 150 mM NaCl, 25 mM Tris-HCl pH 8.0, and 10 mM EDTA]. […]
# M. tuberculosis IgM = tested on: M. tuberculosis IgM; set-up: species or system New Zealand White rabbits; conditions: rabbit, in vivo
# Salmonella typhimurium = assay: Lethal Salmonella typhimurium challenge in mice; assay type: in vivo, Swiss Webster mice
# Protocol: Swiss Webster mice were challenged with a lethal dose, 5×10^3 cfu/mouse of Salmonella typhimurium. Fifteen of the mice were treated with 5 μg/ml PDAG 24 hours prior to the lethal inoculation. Mice were maintained and monitored daily for 10 days. […] By day 10, 12 mice in the PDAG treated group remained alive, whereas all had died in the untreated group. P<0.0001.
# [2] = Stability of PDAG to hydrolysis; assay type: physicochemical; conditions: acidic conditions
Substance,Chlamydia pneumoniae clearance from infected monocytes [1],"IL-6 protein in the media (IL-6; ELISA, vs control, P=0.0001)","IL-6 mRNA levels (IL-6; vs untreated cells, P=0.001)",NALP3 transcripts increase (NALP3) [fold],NFκB transcripts increase (NFκB),Hepatitis B virus replication (Hepatitis B virus),antigen specific IgM production (M. tuberculosis IgM),"mice remaining alive by day 10 (Salmonella typhimurium; fifteen treated mice, 5 μg/ml PDAG 24 hours prior to lethal inoculation, all untreated died, P<0.0001) [mice]",disease progression (Salmonella typhimurium; mice infected with a lethal dose of Salmonella typhimurium),"day on which mortality was first observed (Salmonella typhimurium; mice, 5×10^3 cfu/mouse, 5 μg/ml PDAG 24 hours prior to inoculation, control group day 4) [days]","IgM titer, FCA+PDAG vs FCA only (M. tuberculosis IgM)",lability to hydrolysis [2]
"PDAG peptide: Peptide portion of PDAG without the lipid moiety (acALYDKGYTSKEQKDCVGI, SEQ ID NO:8) (Ac-ALYDKGYTSKEQKDCVGI)",induce Chlamydia pneumoniae clearance,,,,,,,,,,,
"acALYDKGYTSKEQKDCVGI-DAG (Ac-ALYDKGYTSKEQKDCVGI-{DAG}) [PDAG, Peptidyl diacylglyceride: N-acetylated 18-mer peptide esterified at C-terminal isoleucine to 1-stearoyl-2-arachidonoyl-sn-glycerol]",induce Chlamydia pneumoniae clearance,approximately 2 fold,increase IL-6 mRNA levels,1.75,did not,suppresses Hepatitis B virus replication,two-fold increase,12,significantly delays disease progression,7,,
acALYDKGYTSKEQKDCVGI-DAG [native PDAG],,,,,,,,,,,significantly greater,especially labile to hydrolysis under acidic conditions

# Source: patent US9662370B2, “Peptidyl diacylglycerides” (priority 2008, dated 2017)
